The source of these data is PubChem BioAssay (NCI).

Among the test systems are DU-145 prostate; HCC-2998 colon; KM12 colon; M14 melanoma; MALME-3M melanoma; NCI-H23 lung; OVCAR-4 ovarian; SF-295 CNS; SNB-75 CNS; UACC-257 melanoma.
Common to all, as to assay: inhibition of tumour cell growth, NCI panel, 48 h

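Results reflect a 48-hour exposure of cells in 96-well plates to compound at five concentrations. At the GI50, growth is halved. Definition used: TGI = concentration required for complete inhibition of growth.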

As for `O=C1C2CC3C(CC2C(=O)[N]1[Sn]([c]1ccccc1)([c]1ccccc1)[c]1ccccc1)C1(Cl)C(Cl)=C(Cl)C3(Cl)C1(Cl)Cl` (centres undefined), the GI50 is 70.1 nM in the test with DU-145 prostate; 122 nM with HCC-2998 colon; 130 nM with KM12 colon; 150 nM in the test with M14 melanoma; 195 nM in the test with MALME-3M melanoma; 150 nM with NCI-H23 lung. The GI50 is 78.1 nM in the test with OVCAR-4 ovarian, 212 nM in the test with SF-295 CNS, 34.7 nM with SNB-75 CNS and 144 nM with UACC-257 melanoma. The TGI in the test on DU-145 prostate worked out at 200 nM; in the test on HCC-2998 colon, 281 nM; in the test on KM12 colon, 290 nM; in the test on M14 melanoma, 345 nM; in the test with MALME-3M melanoma, 387 nM; with NCI-H23 lung, 388 nM. The TGI with OVCAR-4 ovarian is 289 nM; in the test on SF-295 CNS it was 455 nM; with SNB-75 CNS, 190 nM; with UACC-257 melanoma, 324 nM.
As for `Nc1nc(N)c2nc(CNc3ccc(C(=O)CC(CCC(=O)O)C(=O)O)cc3)cnc2n1` (centres undefined), the GI50 with DU-145 prostate was 2240 nM; in the test with HCC-2998 colon, 179 nM; with KM12 colon, 232 nM; in the test on M14 melanoma, 202 nM; with MALME-3M melanoma it was 1430 nM; with NCI-H23 lung it was 441 nM. Further, the GI50 with SF-295 CNS was 190 nM; in the test on SNB-75 CNS it was 4710 nM; with UACC-257 melanoma it was over 25500 nM. The TGI with DU-145 prostate was over 100000 nM; with HCC-2998 colon it was over 96200 nM; with KM12 colon, over 100000 nM; in the test on M14 melanoma it was over 100000 nM; in the test with MALME-3M melanoma, over 100000 nM; in the test with NCI-H23 lung, over 100000 nM. Moreover, the TGI with OVCAR-4 ovarian, with SF-295 CNS, in the test on SNB-75 CNS and in the test with UACC-257 melanoma was over 100000 nM throughout.
As to `CN1CCN(C(=O)c2ccc(NC(=O)Nc3ccc(N(C)c4ccnc(Nc5ccc(CS(C)(=O)=O)cc5)n4)cc3)cc2)CC1`, the GI50 is 8780 nM in the test with DU-145 prostate; over 25000 nM in the test with HCC-2998 colon; 7330 nM in the test with KM12 colon; over 23200 nM in the test on M14 melanoma; over 15000 nM with MALME-3M melanoma; 19000 nM in the test on NCI-H23 lung. For the same compound, the GI50 in the test on OVCAR-4 ovarian is 8150 nM; with SF-295 CNS, over 22500 nM; in the test on SNB-75 CNS it was 12700 nM; in the test on UACC-257 melanoma it was over 25000 nM. Also, the TGI in the test on DU-145 prostate, in the test with HCC-2998 colon, in the test with KM12 colon, in the test with M14 melanoma, in the test with MALME-3M melanoma and in the test on NCI-H23 lung was over 25000 nM throughout. The TGI in the test on OVCAR-4 ovarian, in the test with SF-295 CNS, with SNB-75 CNS and in the test with UACC-257 melanoma was over 25000 nM each time.
